Laboratory results published in patent US20110059035A1, “COMPOSITIONS BASED ON POLYMER/HYDROGEN PEROXIDE COMPLEXES AND USES THEREOF” (L"OREAL, priority 2008, published 2011).

Tests used:
[1] = In vitro bleaching test on a dye (lightening activity); conditions: H2O2 4% or PVP-H2O2 22% (eq. 4% H2O2), 1 g in 19 g dye solution, pH 10.7, OD 630 nm
Experimental: Protocol for in vitro bleaching test Dye solution or “solution X” is a solution of disodium salt of brilliant blue FCF (CI: 42090) from LCW (Sensient). The dye solution is prepared as follows: 15 mg of dye powder are dissolved in 50 ml of borate buffer pH 10.7 and then again diluted to 1/50th. […] After stirring the mixture in the dark for 10 min, the dispersion is filtered (0.45 μm cellulose filter) and the optical density is measured over the range from 400 to 800 nm at 25° C. […] The decoloring effectiveness is reflected by the bleaching percentage at t=10 min (i.e. [ODt10 min (mixture)−ODt10 min (dye)/ODt0 (dye)]×100.

[2] = Activator selection: pH of Peroxydone K-30 dispersion in water after addition of activator; assay type: physicochemical; conditions: for Associated pH: at the minimum amount of activator, 11 g of Peroxydone K-30 in 75 g of water; for Minimum amount in order to reach a pH > 9 or a plateau pH if pH < 9: initial amount of 11 g of Peroxydone K-30, i.e. 2 g of H2O2, in 75 g of water
Experimental: In the case of a PVP-H2O2 complex, the following protocol can be used to select the activators. A dispersion of 11 g of Peroxydone K-30® (ISP) in 75 g of water is produced, to which increasing amounts of activator are added. pH is measured immediately after each addition. The activator is added in excess until the activator/H2O2 ratio by weight reaches 10.

Associated pH [2] | Minimum amount in order to reach a pH > 9 or a plateau pH if pH < 9 [2] [g] | SMILES | bleaching percentage at t=10 min ([1]; dilution medium PEG-8) [%] | bleaching percentage at t=10 min ([1]; dilution medium butylene glycol) [%] | bleaching percentage at t=10 min ([1]; dilution medium ethanol) [%] | bleaching percentage at t=10 min ([1]; dilution medium glycerol) [%]
– | – | OO [Product H2O2, hydrogen peroxide] | 61 | 63 | 72 | 27
8.1 | 0.9 | O=C([O-])O.[Na+] [Sodium bicarbonate] | – | – | – | –
9.3 | 0.05 | [Ca+2].[O-][O-] [Calcium peroxide] | – | – | – | –
9.8 | 0.11 | O=[Si]([O-])[O-].[Na+].[Na+] [Sodium metasilicate] | – | – | – | –
